# Test results reported in patent publication US20210268062A1, “INFLAMMATORY SKIN DISORDER TREATMENT” (NOVAPEP PTY LTD, priority 2018, published 2021).
# Legend:
# Akt = test: Induction of Akt activation in keratinocytes (phosphorylation of Ser473); format: cell-based; conditions: with PAR-1 inhibitor
# Protocol: Briefly, cells are washed three times with PBS and lysed with lysis buffer (0.15 M NaCl, 0.01 mM PMSF, 1% NP-40, 0.02 M Tris, 6 M urea/H2O). Cell lysates are centrifuged at 10,000 g for 15 minutes and supernatants are separated by 10% sodium-dodecyl-sulphate polyacrylamide-gel electrophoresis (SDS-PAGE) and transferred to a PDVF membrane. The primary antibodies used are as follows against pan or phospho specific forms of Akt, GSK3β, ERK1/2. Immunoreactivity is detected by using the ECL detection system (Amersham Biosciences, Buckinghamshire, UK). Anti-human (3-actin (Sigma-Aldrich) antibody is included to normalize for unequal loading. Protein band intensity is evaluated by densitometry by ImageQuant™ LAS 4000 (GE Healthcare Life Sciences).
# To confirm activation of Akt by TR47, Akt-mediated inactivation of GSK3β via phosphorylation at Ser9 is determined. GSK3β is a well-known downstream substrate for Akt.
# p-AKT = p-AKT ELISA in AE.Hy926 cells treated with PAR1 peptide and/or thrombin; format: cell-based, human; set-up: pAKT compared to adding thrombin alone: dose or concentration left out as unconfirmed
# Protocol: AE.Hy926 cells (ATCC® CRL-2922′), the human umbilical vein cell line, established by fusing primary human umbilical vein cells with a thioguanine-resistant clone of A549 by exposure to polyethylene glycol (PEG), were cultured in Dulbecco's Modified Eagle's Medium (DMEM, high glucose) containing 10% fetal bovine serum (FBS) in 75 sq cm flasks. When cells reached confluence, they were trypsinzed and seeded into 48 well plates at 1×10^4 viable cells/well for 2 days to reach complete confluency. Before treatment, cells were preincubated with DMEM medium (no FBS) for 2 hrs, then switched to fresh DMEM and treated with: • PAR1 12mer peptide (shown on graphs as PAR1) (or scrambled control (SC) of PAR1 peptide) • thrombin
# either alone or at different combinations for 1 hr. After treatment, media were discarded and 100 μl lysis buffer was added to each wells and cell lysates were collected and stored in −40° C. for ELISA.
# Human p-GSK and p-AKT were measured using ELISA Dueset kits (R&D Systems) according to manufacturers' instructions.
compound,measurement,setting,value
CC(C)c1ccc(Cn2ccc3c4c(N)nc(NC5CC5)nc4ccc32)cc1 [SCH79797],dependence of Akt activation on PAR-1,Akt,activation of Akt is dependent on PAR-1
"NPNDKYEPFWED (listed as Homo sapiens) [PAR1 peptide, PAR1 12mer peptide]",Akt activity,"p-AKT; PAR1 peptide added 15 mins before or after thrombin, FIG. 8B",enhance the Akt activity
same,activation of Akt as determined by phosphorylation of Ser473,"p-AKT; PAR1 peptide, after 1 hour, AE.Hy926 cells",induced robust activation of Akt
same,pAKT,"p-AKT; higher concentrations, eg 10 nM thrombin in the presence of peptide",significantly enhanced pAKT
same,pAKT compared to adding thrombin alone,"p-AKT; lower doses of thrombin and PAR1 peptide added together simultaneously, FIG. 8A",increased pAKT
thrombin,phosphorylation of AKT,"p-AKT; thrombin alone at 0.1 and 0.25 nM, FIG. 8A",inhibited phosphorylation of AKT
